Data reported in patent US20260048059A1, “USE OF SUBSTITUTED BENZOXAZOLE AND BENZOFURAN COMPOUNDS FOR THE TREATMENT AND PREVENTION OF DISEASES ASSOCIATED WITH CHRONIC FATIGUE, EXHAUSTION AND/OR EXERTIONAL INTOLERANC” (MITODICURE GMBH, priority 2022, published 2026).

Tested on: isolated rat soleus muscle
Test: Ex vivo isolated rat soleus muscle: residual contractile force in high KCl (12.5 mM) buffer
Conditions: salbutamol 1 μM alone (control group); 30 min in KCl 12.5 mM buffer, relative to last force in initial buffer
Description: The isolated rat muscle either soleus muscle or extensor digitorum longus muscle is a well-characterized and well-validated model for the study of the function of the Na^+/K^+ ATPase. The isolated rat soleus muscle is particularly appropriate for experiments ex vivo as it is very thin so that there is no need for blood supply. […] In the experimental setting used, the high KCl concentration buffer causes partial depolarization that leads to sodium influx to disturb and to decrease excitability to subsequently reduce muscle force. Stimulation of Na^+/K^+ ATPase lowers intracellular sodium levels towards physiological levels to restore excitability and muscular force during electrical stimulation.
As the phosphodiesterase isoenzyme subtype 7 (PDE7) is the predominant PDE isoenzyme in skeletal muscle to raise cAMP this ex vivo model is suited for the testing the effect of PDE7 inhibitors and in particular their effect on force generation disturbed by mechanisms that worsen excitability or the energetic situation. […] High level activity of Na^+/K^+ ATPase stimulated by cAMP can counteract the decrease in excitability and the loss of force. […]
Force measurement: The experimental set-up used for force measurements allowed for the simultaneous recordings from 6 muscles in separate incubation chambers in parallel. Force was recorded and stored with a Notocord HEM data acquisition system. […]

CC(C)(C)NCC(O)c1ccc(O)c(CO)c1 (stereo not shown) [Salbutamol]
Mean residual contractile force in % (SEM in %): 26.6 (3.7); n = 31%
